According to US20220054501A1, “[…] ESTROGEN-RECEPTOR b (ER.beta) POSITIVE BREAST TUMOR” (DCIC Biopharmaceutical Limited, priority 2018, published 2022):

Columns and labels:
[1] = skin penetration on topical administration; settings: topical administration (ointment, lotion or cream)
Description: After topical administration, the compound(s) penetrate through the skin and concentrate in the fatty tissue.

[2] = system: ERβ positive breast cancer tumors; assay: shrinking of breast tumor tissue, topical prodrug (Example 1.1); assay type: in vivo, human; settings: patients, tumors max 2 cm, after three weeks of treatment
Procedure: 1.1 Patients that were diagnosed (by mammography) with ERβ positive breast cancer tumors with a maximum size of 2 cm were treated with the pharmaceutical composition comprising the prodrug of the present invention: The prodrug was applied topically to the affected breast.

[3] = system: ER positive breast cancer; assay: shrinking of breast tumor, 2.5 wt.-% 4-OHA crème (Example 1.2); assay type: in vivo, human; settings: 4 ml crème with 2.5 wt.-% 4-OHA, 2 times/day, after 3-5 weeks
Procedure: 1.2 Application of 4 ml of a crème (2 times/day) comprising 2.5 wt.-% 4-OHA to a breast suffering from an ER positive breast cancer.

[4] = system: ERβ positive breast cancer; assay: treatment success of Anastrozol and Letrozol compared with the topical prodrug (Example 2); assay type: in vivo, human; settings: for treatment success: patients, treated according to current treatment guidelines
Procedure: Studies were carried out on patients suffering from ERβ positive breast cancer.
First, the patients were treated with non-steroidal aromatase-inhibitors Anastrozol or Letrozol, the treatment was carried out according to the respective current treatment guidelines.
Then, said patients were treated with the pharmaceutical composition comprising the prodrug according to the present invention, that is, the prodrug (4-OHA) was applied topically to the affected breast.

ERβ = ERβ (Homo sapiens, UniProt Q92731); assay: binding affinity towards ERβ compared with ERα; settings: fold higher for ERβ
ERβ, sequence (Q92731 whole entry): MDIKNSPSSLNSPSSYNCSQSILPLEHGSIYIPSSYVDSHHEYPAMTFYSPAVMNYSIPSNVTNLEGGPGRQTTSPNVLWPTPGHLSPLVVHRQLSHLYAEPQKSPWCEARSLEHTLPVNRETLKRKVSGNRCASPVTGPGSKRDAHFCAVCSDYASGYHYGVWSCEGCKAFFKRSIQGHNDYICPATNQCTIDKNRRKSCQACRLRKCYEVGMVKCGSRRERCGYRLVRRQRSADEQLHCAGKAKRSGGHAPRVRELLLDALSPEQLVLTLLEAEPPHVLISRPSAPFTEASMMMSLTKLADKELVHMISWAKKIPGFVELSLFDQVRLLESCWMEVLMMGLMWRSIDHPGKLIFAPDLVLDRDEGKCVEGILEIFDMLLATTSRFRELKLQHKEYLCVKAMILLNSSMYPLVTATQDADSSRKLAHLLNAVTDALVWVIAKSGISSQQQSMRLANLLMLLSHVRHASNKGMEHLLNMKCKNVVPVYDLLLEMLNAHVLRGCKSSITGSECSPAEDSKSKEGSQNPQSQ

MDA-MB-231 cells = assay: inhibition of proliferation of MDA MB-231 cells; assay type: cell-based, human
Procedure: MDA-MB-231 cell line is a highly aggressive, invasive, and poorly differentiated epithelial human breast cancer cell line. It lacks estrogen receptor a (ERα) and progesterone receptor (PR) expression, as well as HER2 (human epidermal growth factor 2) amplification. MDA-MB-231 cell line is ERβ positive. It is a model cell line for triple negative breast cancer (TNBC) being ERβ positive.
Two different concentrations of MDA-MB-231 cells (1.0e3 and 2.5e3) were incubated with increasing concentrations of 4-OHT (K+; 0.5 μM; 1 μM; 5 μm; 10 μM; 20 μM). The cells were incubated for 6 days (d). Then, absorption at 492 nm was measured.

C[C@]12CCC(=O)C(O)=C1CC[C@@H]1[C@@H]2CC[C@]2(C)C(=O)CC[C@@H]12 [4-OHA, 4-hydroxyandrost-4-ene-3,17-dione]
skin penetration capabilities [1]: excellent skin penetration capabilities
tumor size [2]: reduction in tumor size
size of the tumor [3]: significantly decreased
patients with stabilisation of the disease over 6 months ([4]; topical, after unsuccessful Anastrozol or Letrozol treatment): 50%

C[C@]12CC[C@H]3[C@@H](CCC4C(O)C(O)CC[C@@]43C)[C@@H]1CC[C@@H]2O (stereo partly drawn) [4-OHBA, 4-hydroxy-5-alpha-androstane-3-beta,17beta-diol]
affinity towards ERβ relative to affinity towards ERα (ERβ): about 10 times

C[C@]12CC[C@H]3[C@@H](CCC4=C(O)C(=O)CC[C@@]43C)[C@@H]1CC[C@@H]2O [4-OHT, 4-hydroxytestosterone]
end concentration from which significant inhibition of cell growth takes place (MDA-MB-231 cells; 6 d incubation, absorption at 492 nm): at least 5 μM/L
inhibition at 5 µM (MDA-MB-231 cells; Homo sapiens, MDA-MB-231, 144 h, 5 μM/L 4-OHT, cell concentration 1.0e3, 6 d, read-out: inhibition of cell growth): ~50%
inhibition at 20 µM (MDA-MB-231 cells; Homo sapiens, MDA-MB-231, 144 h, 20 μM/L 4-OHT, 6 d, read-out: inhibition of cell growth): 75 to 80%

CC(C)(C#N)c1cc(Cn2cncn2)cc(C(C)(C)C#N)c1 [Anastrozol]
treatment success [4]: not successful

N#Cc1ccc(C(c2ccc(C#N)cc2)n2cncn2)cc1 [Letrozol]
treatment success [4]: not successful
